# According to patent publication US20240109924A1, “IP4-4,6 SUBSTITUTED DERIVATIVE COMPOUNDS” (SANIFIT THERAPEUTICS, S.A., priority 2021, published 2024):
# Columns and labels:
# blood perfusion = test: In vivo blood perfusion (laser doppler perfusion imaging) in vitamin D3-induced limb ischemia rat model; conditions: average blood perfusion recovery vs vehicle and sham (sham 100%), SD rats, 30 mg/kg s.c. daily D1-D5
# Description: (§1) The effects of compounds 1, 6, 9, 14, 18, 31, and 39 over blood perfusion and tissue calcification after the inception of limb ischemia were tested using a rat model for a duration of 5 days. Limb ischemia was induced to all groups from D1 to D3 excepting the sham group, to which no ischemia was induced. The animals were administered placebo and active agent formulations from D1 to D5. Observations were taken at several points during the treatment from D0 to D5. All animals were weighed every day before treatment. Seventy-two male Sprague Dawley (SD) rats (Envigo Corp., Huntingdon, GB) weighing approximately 150-200 g were used. The rats were fed with a […]® Rod14-H diet ([…] GmbH, Soest, DE). The rats were divided in 9 groups, 8 animals per group, as follows: • Group 1-Control (Sham) • Group 2-Physiological saline solution • Group 3-Compound 1 • Group 4-Compound 6 • Group 5-Compound 9 • Group 6-Compound 14 • Group 7-Compound 18 • Group 8-Compound 31 • Group 9-Compound 39 Limb ischemia was induced in the rats of groups 2-9 by subcutaneous administration of 150,000 IU/kg vitamin D3 (cholecalciferol, Duphafral D3 1000; Zoetis Inc., Parsippany, NJ, US) in physiological saline solution (2 mL/kg) every day during D1 to D3. The rats of group 1 were not administered vitamin D3. The rats in groups 1 and 2 were administered 2 mL/kg of physiological saline solution daily from D1 to D5 via subcutaneous route. The animals in groups 3-9 were administered subcutaneously 30 mg/kg of compounds 1, 6, 9, 14, 18, 31, and 39, respectively, in physiological saline solution (2 mL/kg), every day from D1 to D5. Limb functional and ischemia status were evaluated by using a laser doppler perfusion imaging apparatus PeriCam PSI Normal Resolution (Perimed AB, Järfälla, SE) in all groups at D0 and D5. The perfusion difference and perfusion ratio were calculated by comparing the baseline and either D0 or D5 readings for each group. In addition, the blood perfusion ratio of each treatment group (i.e., groups 2 to 9) to sham group was also calculated. All rats of groups 1-9 were sacrificed on D5 30 minutes after dosing for determining their Ca baseline values. The animals were anesthetized by isoflurane inhalation. The whole aorta, carotids, femoral arteries, heart, and right kidney of the subjects were collected for calcium content measurement. The tissues were lyophilized for 48-72 h and weighed. The lyophilized tissues were then digested using a 1:1 HNO3:HClO4 mixture in a dry bath incubator for 2-4 h at 180° C. The digested tissues were subsequently diluted using ultra-pure MilliQ® water (MilliporeSigma (Merck KGaA), Burlington, MA, US) to a final volume of 5 mL (i.e., for femoral arteries and carotids) of 10 mL (i.e., for heart, kidneys, and aorta). Calcium content was quantified via inductively coupled plasma optical emission spectrometry (ICP-OES) using an Optima 7300 DV ICP-OES System spectrometer (PerkinElmer, Inc., Waltham, MA, US) according to the manufacturer's instructions. Average blood perfusion recovery compared to vehicle and sham were also calculated. Recovery for sham was 100%. Blood perfusion recovery calculated was using the following equation: 100-((BP sham-BP new drug)/(BP sham-BP vehicle)*100).
# tissue calcification = test: In vivo tissue calcification (calcium content by ICP-OES) in vitamin D3-induced limb ischemia rat model; conditions: SD rats, vitamin D3 150,000 IU/kg s.c. D1-D3, 30 mg/kg s.c. daily D1-D5, sacrifice D5; for Inhibition of calcification (%) Femoral: femoral arteries; for Inhibition of calcification (%) Kidney: right kidney
# Description: as §1, with “D5.” for “D5. Limb functional and ischemia status were evaluated by using a laser doppler perfusion imaging apparatus PeriCam PSI Normal Resolution (Perimed AB, Järfälla, SE) in all groups at D0 and D5. The perfusion difference and perfusion ratio were calculated by comparing the baseline and either D0 or D5 readings for each group. In addition, the blood perfusion ratio of each treatment group (i.e., groups 2 to 9) to sham group was also calculated.”
# [1] = In vitro inhibition of calcium phosphate crystallization in human plasma (spectrophotometric assay); format: biochemical; conditions: 0-100 μM, 1.5 mM phosphate, 12.5 mM calcium, pH 7.4, absorbance 550 nm, slope 6-24 min, read-out: Relative Potency
# Procedure, shortened: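 Human plasma spiked with compound (0-100 μM), centrifuged, then brought to final 1.5 mM phosphate and 12.5 mM calcium, pH 7.4. Absorbance at 550 nm read every 3 min for 30 min at rt; inhibition from slopes (6-24 min, absorbance vs log time) relative to blank plasma.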
EC50 [1] [µM],SMILES,BP recovery (%) (blood perfusion),Inhibition of calcification (%) Aorta (tissue calcification),Inhibition of calcification (%) Carotid (tissue calcification),Inhibition of calcification (%) Femoral (tissue calcification),Inhibition of calcification (%) Heart (tissue calcification),Inhibition of calcification (%) Kidney (tissue calcification)
≤ 5,"COCc1cn(CCCCCCO[C@@H]2[C@@H](OP(=O)([O-])[O-])[C@H](OCCCCCCn3cc(COC)nn3)[C@@H](OP(=O)([O-])[O-])[C@@H](OP(=O)([O-])[O-])[C@H]2OP(=O)([O-])[O-])nn1.[Na+].[Na+].[Na+].[Na+].[Na+].[Na+].[Na+].[Na+] [Compound 39, 4,6-O-bis(6-(4-(methoxymethyl)-1H-1,2,3-triazol-1-yl)hexyl)-myo-inositol-1,2,3,5-tetrakis(phosphate) octasodium salt]",Over (Average blood perfusion recovery over or under 25%.),Over (Average inhibition percentage over or under 25% inhibition of calcification.),Under (Average inhibition percentage over or under 25% inhibition of calcification.),Over (Average inhibition percentage over or under 25% inhibition of calcification.),Over (Average inhibition percentage over or under 25% inhibition of calcification.),Over (Average inhibition percentage over or under 25% inhibition of calcification.)
≤ 5,"O=C([O-])CCCCCO[C@@H]1[C@@H](OP(=O)([O-])[O-])[C@H](OCCCCCC(=O)[O-])[C@@H](OP(=O)([O-])[O-])[C@@H](OP(=O)([O-])[O-])[C@H]1OP(=O)([O-])[O-].[Na+].[Na+].[Na+].[Na+].[Na+].[Na+].[Na+].[Na+].[Na+].[Na+] [Compound 18, 4,6-O-bis(5-carboxypentyl)-myo-inositol-1,2,3,5-tetrakis(phosphate) decasodium salt]",Over (Average blood perfusion recovery over or under 25%.),Under (Average inhibition percentage over or under 25% inhibition of calcification.),Under (Average inhibition percentage over or under 25% inhibition of calcification.),Under (Average inhibition percentage over or under 25% inhibition of calcification.),Over (Average inhibition percentage over or under 25% inhibition of calcification.),Over (Average inhibition percentage over or under 25% inhibition of calcification.)
≤ 5,"NCCCCCO[C@@H]1[C@@H](OP(=O)([O-])[O-])[C@H](OCCCCCN)[C@@H](OP(=O)([O-])[O-])[C@@H](OP(=O)([O-])[O-])[C@H]1OP(=O)([O-])[O-].[Na+].[Na+].[Na+].[Na+].[Na+].[Na+].[Na+].[Na+] [Compound 14, 4,6-O-bis(5-aminopentyl)-myo-inositol-1,2,3,5-tetrakis(phosphate) octasodium salt]",Over (Average blood perfusion recovery over or under 25%.),Under (Average inhibition percentage over or under 25% inhibition of calcification.),Under (Average inhibition percentage over or under 25% inhibition of calcification.),Over (Average inhibition percentage over or under 25% inhibition of calcification.),Over (Average inhibition percentage over or under 25% inhibition of calcification.),Over (Average inhibition percentage over or under 25% inhibition of calcification.)
